Structures are written as SMILES. Like-named read-outs stand apart in the source and are kept apart here.

The source of these data is patent US5676931A, “Aerosol drug formulations for use with non CFC propellants” (Abbott Laboratories, priority 1996, dated 1997).

The nature of this series: Biodistribution of SLS MDI formulation: drug concentrations in lung and blood (Table 5). The class given is in vivo, male Sprague-Dawley rats. The settings on record: rats. Here is the method:
A SLS (sodium lauryl sulfate) MDI formulation was tested in the following biodistribution study. One group of 13 male Sprague-Dawley rats, weighing 400 to 500 grams was used. This group of animals was dosed with a sodium lauryl sulfate-based R(+)-N-[3-[5-(4-fluorophenoxy)-2-furanyl]-1-methyl-2-propynyl]-N-hydroxyurea MDI formulation. Blood samples were collected at 0.083, 0.25, 0.5, 1, 2, 4 and 6 hours after dosing. One animal in each group was sacrificed at 0.25, 0.5, 1, 2, 4 and 6 hours after dosing for the determination of drug concentrations in the lung.

As for `C[C@H](C#Cc1ccc(Oc2ccc(F)cc2)o1)N(O)C(N)=O` [R(+)-N-[3-[5-(4-fluorophenoxy)-2-furanyl]-1-methyl-2-propynyl]-N-hydroxyurea], where the note is “MDI formulations in HFA-134a”, the reproducibility of delivery result is on record as “reproducibly delivered”. The “fraction of theoretically delivered drug (lung)” value (SLS MDI, lung, time 0 hr, footnote c) was 26.7%. Moreover, under “SLS-based MDI”, the “drug concentration recovered from the lung following delivery” value is on record as “about 67 μg/g”. For the same compound, the concentration at 0.083 h (rat, blood, inhaled or intranasal, SLS MDI 10 mg/mL drug, 0.3% SLS in HFA134a, 0.083 hr (n = 12)) worked out at 110 ± 80 ng/mL. Moreover, the concentration at 0.25 h by setting is: (rat, blood, inhaled or intranasal, SLS MDI 10 mg/mL drug, 0.3% SLS in HFA134a, 0.25 hr (n = 12), read-out: Concentrations of Drug, Blood) 140 ± 70 ng/mL; (rat, lung, inhaled or intranasal, SLS MDI 10 mg/mL drug, 0.3% SLS in HFA134a, 0.25 hr, read-out: Concentrations of Drug, Lung) 14500 ± 6330 ng/g. The concentration at 0.5 h by setting is: (rat, blood, inhaled or intranasal, SLS MDI 10 mg/mL drug, 0.3% SLS in HFA134a, 0.5 hr (n = 9), read-out: Concentrations of Drug, Blood) 180 ± 80 ng/mL; (rat, lung, inhaled or intranasal, SLS MDI 10 mg/mL drug, 0.3% SLS in HFA134a, 0.5 hr, read-out: Concentrations of Drug, Lung) 12100 ± 4720 ng/g. Also, the concentration at 1 h (rat, blood, inhaled or intranasal, SLS MDI 10 mg/mL drug, 0.3% SLS in HFA134a, 1.0 hr (n = 8), read-out: Concentrations of Drug, Blood) amounted to 180 ± 60 ng/mL and the concentration at 1 h (rat, lung, inhaled or intranasal, SLS MDI 10 mg/mL drug, 0.3% SLS in HFA134a, 1.0 hr, read-out: Concentrations of Drug, Lung) amounted to 13100 ± 15700 ng/g. The concentration at 2 h (rat, blood, inhaled or intranasal, SLS MDI 10 mg/mL drug, 0.3% SLS in HFA134a, 2.0 hr (n = 6), read-out: Concentrations of Drug, Blood) was determined as 150 ± 60 ng/mL and the concentration at 2 h (rat, lung, inhaled or intranasal, SLS MDI 10 mg/mL drug, 0.3% SLS in HFA134a, 2.0 hr, read-out: Concentrations of Drug, Lung) was 16600 ± 13000 ng/g. For the same compound, the concentration at 4 h (rat, blood, inhaled or intranasal, SLS MDI 10 mg/mL drug, 0.3% SLS in HFA134a, 4.0 hr (n = 4), read-out: Concentrations of Drug, Blood) turned out to be 200 ± 40 ng/mL and the concentration at 4 h (rat, lung, inhaled or intranasal, SLS MDI 10 mg/mL drug, 0.3% SLS in HFA134a, 4.0 hr, read-out: Concentrations of Drug, Lung) worked out at 8540 ± 3100 ng/g. Besides, the concentration at 6 h reads like this: (rat, blood, inhaled or intranasal, SLS MDI 10 mg/mL drug, 0.3% SLS in HFA134a, 6.0 hr (n = 2), read-out: Concentrations of Drug, Blood) 280 ± 270 ng/mL; (rat, lung, inhaled or intranasal, SLS MDI 10 mg/mL drug, 0.3% SLS in HFA134a, 6.0 hr, read-out: Concentrations of Drug, Lung) 9850 ± 2910 ng/g. For the same compound, the “Concentrations of Drug, Lung” value (SLS MDI 10 mg/mL drug, 0.3% SLS in HFA134a, 0 hr) worked out at 66.74 µg/g.
